In ChEMBL document CHEMBL1121869, “Potential inhibitors of L-asparagine biosynthesis. 5. Electrophilic amide analogues of (S)-2,3-diaminopropionic acid” (J Med Chem, 1981):

Tests used:
TsH1 [1] = assay: Compound was evaluated for the growth inhibition of TsH1 cells in an enriched eagles minimal essential medium, medium lacking aspartic acid and asparagine at a concentration of 0.01 mg/mL (0.03 mM); Medium growth; assay type: functional, cell-based; conditions: Cricetulus griseus
TsH1 [2] = assay: Compound was evaluated for the growth inhibition of TsH1 cells in an enriched eagles minimal essential medium, medium lacking aspartic acid at a concentration of 0.01 mg/mL (0.03 mM); Heavy growth; assay type: functional, cell-based; conditions: Cricetulus griseus
TsH1 [3] = assay: Compound was evaluated for the growth inhibition of TsH1 cells in an enriched eagles minimal essential medium, complete medium at a concentration of 0.01 mg/mL (0.03 mM); Heavy growth; assay type: functional, cell-based; conditions: Cricetulus griseus
TsH1 [4] = assay: Compound was evaluated for the growth inhibition of TsH1 cells in an enriched eagles minimal essential medium, medium lacking asparagine at a concentration of 1.0 mg/mL (3.27 mM); Cells dead; assay type: functional, cell-based; conditions: Cricetulus griseus
TsH1 [5] = assay: Compound was evaluated for the growth inhibition of TsH1 cells in an enriched eagles minimal essential medium, complete medium at a concentration of 1.0 mg/mL (3.27 mM); Cells dead; assay type: functional, cell-based; conditions: Cricetulus griseus
TsH1 [6] = assay: Compound was evaluated for the growth inhibition of TsH1 cells in an enriched eagles minimal essential medium, medium lacking aspartic acid and asparagine at a concentration of 1.0 mg/mL (3.27 mM); Cells dead; assay type: functional, cell-based; conditions: Cricetulus griseus
TsH1 [7] = assay: Compound was evaluated for the growth inhibition of TsH1 cells in an enriched eagles minimal essential medium, medium lacking aspartic acid and asparagine at a concentration of 0.04 mg/mL (0.13 mM); Heavy growth; assay type: functional, cell-based; conditions: Cricetulus griseus
TsH1 [8] = assay: Compound was evaluated for the growth inhibition of TsH1 cells in an enriched eagles minimal essential medium, medium lacking asparagine at a concentration of 0.2 mg/mL (0.65 mM); Cells dead; assay type: functional, cell-based; conditions: Cricetulus griseus
TsH1 [9] = assay: Compound was evaluated for the growth inhibition of TsH1 cells in an enriched eagles minimal essential medium, medium lacking asparagine at a concentration of 0.01 mg/mL (0.03 mM); Heavy growth; assay type: functional, cell-based; conditions: Cricetulus griseus
TsH1 [10] = assay: Compound was evaluated for the growth inhibition of TsH1 cells in an enriched eagles minimal essential medium, complete medium at a concentration of 0.04 mg/mL (0.13 mM); Heavy growth; assay type: functional, cell-based; conditions: Cricetulus griseus
TsH1 [11] = assay: Compound was evaluated for the growth inhibition of TsH1 cells in an enriched eagles minimal essential medium, medium lacking aspartic acid at a concentration of 0.04 mg/mL (0.13 mM); Heavy growth; assay type: functional, cell-based; conditions: Cricetulus griseus
TsH1 [12] = assay: Compound was evaluated for the growth inhibition of TsH1 cells in an enriched eagles minimal essential medium, medium lacking asparagine at a concentration of 0.04 mg/mL (0.13 mM); Heavy growth; assay type: functional, cell-based; conditions: Cricetulus griseus
TsH1 [13] = assay: Compound was evaluated for the growth inhibition of TsH1 cells in an enriched eagles minimal essential medium, complete medium at a concentration of 0.2 mg/mL (0.65 mM); Light growth; assay type: functional, cell-based; conditions: Cricetulus griseus
[14] = biological target: T1, Asparagine synthetase [glutamine-hydrolyzing] (Rattus norvegicus) (UniProt P49088); assay: Inhibition of asparagine synthetase from partially purified rat Novikoff hepatoma at a final concentration of 1 mM
T1 sequence (whole entry): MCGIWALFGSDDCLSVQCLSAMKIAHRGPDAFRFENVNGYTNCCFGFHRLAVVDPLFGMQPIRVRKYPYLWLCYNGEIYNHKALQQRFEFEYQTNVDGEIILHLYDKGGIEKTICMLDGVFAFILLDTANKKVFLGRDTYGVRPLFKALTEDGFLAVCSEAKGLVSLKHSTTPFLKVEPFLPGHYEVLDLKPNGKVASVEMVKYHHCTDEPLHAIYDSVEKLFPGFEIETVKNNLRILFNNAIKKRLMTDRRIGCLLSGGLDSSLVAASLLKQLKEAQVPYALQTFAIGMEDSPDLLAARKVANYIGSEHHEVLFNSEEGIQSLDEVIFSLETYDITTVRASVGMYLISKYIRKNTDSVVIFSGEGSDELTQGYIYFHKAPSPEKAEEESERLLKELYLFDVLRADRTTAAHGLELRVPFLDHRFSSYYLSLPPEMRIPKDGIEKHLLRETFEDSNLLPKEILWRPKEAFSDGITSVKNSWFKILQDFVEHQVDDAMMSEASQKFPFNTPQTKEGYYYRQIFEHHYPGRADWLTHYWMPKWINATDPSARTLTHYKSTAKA

TsH1 [15] = assay: Compound was evaluated for the growth inhibition of TsH1 cells in an enriched eagles minimal essential medium, medium lacking aspartic acid and asparagine at a concentration of 0.2 mg/mL (0.65 mM); Cells dead; assay type: functional, cell-based; conditions: Cricetulus griseus
TsH1 [16] = assay: Compound was evaluated for the growth inhibition of TsH1 cells in an enriched eagles minimal essential medium, medium lacking aspartic acid at a concentration of 0.2 mg/mL (0.65 mM); Light growth; assay type: functional, cell-based; conditions: Cricetulus griseus
TsH1 [17] = assay: Compound was evaluated for the growth inhibition of TsH1 cells in an enriched eagles minimal essential medium, medium lacking aspartic acid at a concentration of 1.0 mg/mL (3.27 mM); Cells dead; assay type: functional, cell-based; conditions: Cricetulus griseus
[18] = biological target: T1, Asparagine synthetase [glutamine-hydrolyzing] (Rattus norvegicus); assay: Inhibition of asparagine synthetase from partially purified rat Novikoff hepatoma at a final concentration of 2 mM

Compound | Growth inhibition (TsH1 [1]) | Growth inhibition (TsH1 [2]) | Growth inhibition (TsH1 [3]) | Growth inhibition (TsH1 [4]) | Growth inhibition (TsH1 [5]) | Growth inhibition (TsH1 [6]) | Growth inhibition (TsH1 [7]) | Growth inhibition (TsH1 [8]) | Growth inhibition (TsH1 [9]) | Growth inhibition (TsH1 [10]) | Growth inhibition (TsH1 [11]) | Growth inhibition (TsH1 [12]) | Growth inhibition (TsH1 [13]) | inhibition [14] | Growth inhibition (TsH1 [15]) | Growth inhibition (TsH1 [16]) | Growth inhibition (TsH1 [17]) | inhibition [18]
NC(CNC(=O)CBr)C(=O)O (stereo not drawn) | Medium Growth | Heavy Growth | Heavy Growth | Not toxic | Not toxic | Not toxic | Heavy Growth | Not toxic | Heavy Growth | Heavy Growth | Heavy Growth | Heavy Growth | Light growth | 93% | Not toxic | Light growth | Not toxic | –
CC(=O)NCC(N)C(=O)O (stereo not drawn) | – | – | – | – | – | – | – | – | – | – | – | – | – | – | – | – | – | 0%
